# Experimental data published in patent publication US8859605B2, “Cysteine protease inhibitors” (Medivir UK Ltd, priority 2009, dated 2014).
# What was measured:
# [1] = target: T1, human recombinant cathepsin K (Homo sapiens, UniProt P43235); experiment: Determination of cathepsin K proteolytic catalytic activity (H-D-Ala-Leu-Lys-AMC substrate); assay type: biochemical; conditions: read-out: Ki Cat. K
# T1 construct: made in house; host or cells: not fixed: E coli, Pichia or Baculovirus systems are named as options
# T1 sequence (P43235 115-329): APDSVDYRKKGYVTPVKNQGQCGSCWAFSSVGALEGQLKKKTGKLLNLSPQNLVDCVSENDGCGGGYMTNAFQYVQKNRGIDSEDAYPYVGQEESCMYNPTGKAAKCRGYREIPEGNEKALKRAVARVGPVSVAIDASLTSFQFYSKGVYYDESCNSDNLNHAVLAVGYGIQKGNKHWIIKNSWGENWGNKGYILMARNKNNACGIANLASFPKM
# Description: Determination of Cathepsin K Proteolytic Catalytic Activity
# Convenient assays for cathepsin K are carried out using human recombinant enzyme, such as that described in PDB. • ID BC016058 standard; mRNA; HUM; 1699 BP. • DE Homo sapiens cathepsin K (pycnodysostosis), mRNA (cDNA clone MGC:23107 • RX MEDLINE; RX PUBMED; 12477932. • DR RZPD; IRALp962G1234. • DR SWISS-PROT; P43235;
# The recombinant cathepsin K can be expressed in a variety of commercially available expression systems including E coli, Pichia and Baculovirus systems. The purified enzyme is activated by removal of the prosequence by conventional methods.
# Standard assay conditions for the determination of kinetic constants used a fluorogenic peptide substrate, typically H-D-Ala-Leu-Lys-AMC, and were determined in either 100 mM Mes/Tris, pH 7.0 containing 1 mM EDTA and 10 mM 2-mercaptoethanol or 100 mMNa phosphate, imM EDTA, 0.1% PEG4000 pH 6.5 or 100 mM Na acetate, pH 5.5 containing 5 mM EDTA and 20 mM cysteine, in each case optionally with […] as stabiliser. The enzyme concentration used was 5 nM. The stock substrate solution was prepared at 10 mM in DMSO. Screens were carried out at a fixed substrate concentration of 60 μM and detailed kinetic studies with doubling dilutions of substrate from 250 μM. The total DMSO concentration in the assay was kept below 3%. All assays were conducted at ambient temperature. Product fluorescence (excitation at 390 nm, emission at 460 nm) was monitored with a Labsystems Fluoroskan Ascent fluorescent plate reader. Product progress curves were generated over 15 minutes following generation of AMC product.
# (§1) Potential inhibitors are screened using the above assay with variable concentrations of test compound. Reactions were initiated by addition of enzyme to buffered solutions of substrate and inhibitor. Ki values were calculated according to equation 1.
# (§2) [formula] where v0 is the velocity of the reaction, V is the maximal velocity, S is the concentration of substrate with Michaelis constant of KM, and I is the concentration of inhibitor.
# [2] = target: T2, human cathepsin S (Homo sapiens, UniProt P25774); experiment: Cathepsin S Ki determination (boc-Val-Leu-Lys-AMC fluorescent substrate); assay type: biochemical; conditions: baculovirus-expressed human cathepsin S, pH 6.5; read-out: Ki Cat. S
# T2 construct: made in house; host or cells: baculovirus expression system
# Description: Cathepsin S Ki Determination
# The assay uses baculovirus-expressed human cathepsin S and the boc-Val-Leu-Lys-AMC fluorescent substrate available from Bachem in a 384 well plate format, in which 7 test compounds can be tested in parallel with a positive control comprising a known cathepsin S inhibitor comparator.
# 280 μL/well of 12.5% DMSO are added to rows B-H of two columns of a 96 deep well polypropylene plate. 70 μL/well of substrate is added to row A. 2×250 μL/well of assay buffer (100 mM Na phosphate, 100 mM NaCl, pH 6.5) is added to row A, mixed, and double diluted down the plate to row H.
# 100 μL/well of assay buffer is added to columns 2-5 and 7-12 of 4 rows of a 96 well V bottom polypropylene plate. 200 μL/well of assay buffer is added to columns 1 and 6.
# 2 μl of each 10 mM test compound is added to a separate well on row A, columns 1-10. Add 90 μl assay buffer containing 1 mM DTT and 2 nM cathepsin S to each well of rows B-H and 180 μl to row A. Mix row A using a multichannel pipette and double dilute to row G. Mix row H and read in the fluorescent spectrophotometer.
# The second test compound is added to column 6 of the top row, the third to column 1 of the second row etc. Add 1 μL of comparator to column 6 of the bottom row. Mix column 1 and double dilute to column 5. Mix column 6 and double dilute to column 10. Using an 8-channel multistepping pipette set to 5×10 μL, distribute 10 μL/well of substrate to the 384 well assay plate. Distribute the first column of the substrate dilution plate to all columns of the assay plate starting at row A. The tip spacing of the multichannel pipette will correctly skip alternate rows. Distribute the second column to all columns starting at row B. Using a 12-channel multistepping pipette set to 4×10 μL, distribute 10 μL/well of inhibitor to the 384 well assay plate. Distribute the first row of the inhibitor dilution plate to alternate rows of the assay plate starting at A1. The tip spacing of the multichannel pipette will correctly skip alternate columns. Similarly, distribute the second, third and fourth rows to alternate rows and columns starting at A2, B1 and B2 respectively.
# Mix 20 mL assay buffer and 20 μL 1M DTT. Add sufficient cathepsin S to give 2 nM final concentration.
# Using the a distributor such as a Multidrop 384, add 30 μL/well to all wells of the assay plate and read in fluorescent spectrophotometer such as an Ascent.
# Fluorescent readings, (excitation and emission wavelengths 390 nm and 460 nm respectively, set using bandpass filters) reflecting the extent of enzyme cleavage of the fluorescent substrate, […] the inhibitor, are linear rate fitted for each well.
# Fitted rates for all wells for each inhibitor are fitted to the competitive inhibition equation using SigmaPlot 2000 to determine V, Km and Ki values.
# as §1, §2
# [3] = target: human cathepsin L (Homo sapiens, UniProt P07711); experiment: Cathepsin L Ki (H-D-Val-Leu-Lys-AMC substrate); assay type: biochemical; conditions: pH 5.5, read-out: Ki Cat. L
# Description: The procedure above with the following amendments is used for the determination of Ki for cathepsin L.
# The enzyme is commercially available human cathepsin L (for example Calbiochem). The substrate is H-D-Val-Leu-Lys-AMC available from Bahcem. The assay buffer is 100 mM sodium acetate 1 mM EDTA, pH5.5) The DMSO stock (10 mM in 100% DMSO) is diluted to 10% in assay buffer. Enzyme is prepared at 5 nM concentration in assay buffer plus 1 mM dithiothreitol just before use. 2 μL of 10 mM inhibitor made up in 100% DMSO is dispensed into row A. 10 μL of 50 μM substrate (=1/200 dilution of 10 mM stock in DMSO, diluted in assay buffer).
# as §1, §2
# [4] = reference markers (passive transport, active transport, active efflux); cited from earlier work
# T2 sequence (P25774 115-331): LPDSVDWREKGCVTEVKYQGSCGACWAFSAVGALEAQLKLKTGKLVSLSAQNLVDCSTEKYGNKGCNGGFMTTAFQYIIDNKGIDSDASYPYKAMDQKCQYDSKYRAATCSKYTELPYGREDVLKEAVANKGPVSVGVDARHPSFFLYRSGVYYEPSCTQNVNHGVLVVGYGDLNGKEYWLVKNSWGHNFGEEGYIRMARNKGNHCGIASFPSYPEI
# Chain of human cathepsin L (P07711 114-333): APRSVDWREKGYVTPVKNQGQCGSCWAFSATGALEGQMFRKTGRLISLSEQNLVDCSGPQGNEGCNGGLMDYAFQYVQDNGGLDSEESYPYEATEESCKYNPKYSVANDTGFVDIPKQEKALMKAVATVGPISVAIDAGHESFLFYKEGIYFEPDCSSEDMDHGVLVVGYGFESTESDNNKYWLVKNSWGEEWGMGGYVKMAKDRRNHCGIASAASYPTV
Compound,Ki [1],Ki [2],Ki [3],absorption in man (%) [4]
"CCC(=O)N[C@@H](CC1(C)CCCC1)C(=O)N[C@]1(C(=O)C(=O)Nc2ccn(C)n2)C[C@@H](F)C1 [Example A1, N-[3-Fluoro-1-(1-methyl-1H-pyrazol-3-ylaminooxalyl)-cyclobutyl]-3-(1-methyl-cyclopentyl)-2-propionylamino-propionamide]",850 nM,0.8 nM,3900 nM,–
CC(=O)N[C@@H](CC1(C)CCCC1)C(=O)NC1(C(=O)C(=O)Nc2ccn(C)n2)CCC1 [Example A6],580 nM,0.81 nM,5200 nM,–
CC(=O)N[C@@H](CC1(C)CCC1)C(=O)NC1(C(=O)C(=O)Nc2ccn(C)n2)CC(F)(F)C1 [Example A13],340 nM,3.8 nM,870 nM,–
CC(=O)N[C@@H](CC(C)(C)C)C(=O)NC1(C(=O)C(=O)Nc2ccn(C)n2)CC(F)(F)C1 [Example A15],1200 nM,20 nM,6500 nM,–
COC1CC(NC(=O)[C@H](CC2(C)CCCC2)NC(C)=O)(C(=O)C(=O)NC2CC2)C1 (stereo partly drawn) [Example A16],12000 nM,10 nM,33000 nM,–
COC1CC(NC(=O)[C@H](CC2(C)CCCC2)NC(=O)CCl)(C(=O)C(=O)NC2CC2)C1 (stereo partly drawn) [Example A19],7400 nM,5.6 nM,25000 nM,–
CC(C)C(=O)N[C@@H](CC1(C)CCCC1)C(=O)NC1(C(=O)C(=O)Nc2ccn(C)n2)CC(F)(F)C1 [Example A25],1100 nM,1 nM,2300 nM,–
CC(C)C(=O)NC(CC1(F)CCCC1)C(=O)NC1(C(=O)C(=O)Nc2ccn(C)n2)CC(F)C1 (stereo not drawn) [Example A30],720 nM,1 nM,3300 nM,–
COC1CC(NC(=O)[C@H](CC2(F)CCCC2)NC(=O)C(C)(C)C)(C(=O)C(=O)Nc2ccn(C)n2)C1 (stereo partly drawn) [Example A31],340 nM,1.8 nM,1200 nM,–
Cn1ccc(NC(=O)C(=O)C2(NC(=O)[C@H](CC3(F)CCCC3)NC(=O)C(F)F)CC(F)(F)C2)n1 [Example A36],1100 nM,3 nM,380 nM,–
[2H]C([2H])([2H])C(C(=O)N[C@@H](CC1(F)CCCC1)C(=O)NC1(C(=O)C(=O)Nc2ccn(C)n2)CC(F)(F)C1)(C([2H])([2H])[2H])C([2H])([2H])[2H] [Example A37],640 nM,3 nM,1800 nM,–
"CCN(CC)C(=O)N[C@@H](CC1(C)CCCC1)C(=O)N[C@]1(C(=O)C(=O)Nc2ccn(C)n2)C[C@@H](F)C1 [Example U1, 2-(3,3-Diethyl-ureido)-N-[3-fluoro-1-(1-methyl-1H-pyrazol-3-ylaminooxalyl)-cyclobutyl]-3-(1-methyl-cyclopentyl)-propionamide]",510 nM,1.2 nM,860 nM,–
"CC(C)NC(=O)N[C@@H](CC1(F)CCCC1)C(=O)N[C@]1(C(=O)C(=O)Nc2ccn(C)n2)C[C@@H](F)C1 [Example U2, 3-(1-Fluoro-cyclopentyl)-N-[3-fluoro-1-(1-methyl-1H-pyrazol-3-ylaminooxalyl)-cyclobutyl]-2-(3-isopropyl-ureido)-propionamide]",1300 nM,1.3 nM,2200 nM,–
CCNC(=O)N[C@@H](CC1(F)CCCC1)C(=O)NC1(C(=O)C(=O)Nc2ccn(C)n2)CCC1 [Example U4],620 nM,0.63 nM,2100 nM,–
N[C@@H](Cc1ccccc1)C(=O)O [L-Phenylalanine],–,–,–,100%
OC[C@@H](O)[C@@H](O)[C@H](O)[C@H](O)CO [Mannitol],–,–,–,16%
CN(Cc1cnc2nc(N)nc(N)c2n1)c1ccc(C(=O)N[C@@H](CCC(=O)O)C(=O)O)cc1 [Methotrexate],–,–,–,20%
